US12568972B2, “Pyridazinol compounds and derivatives, preparation methods, herbicidal compositions and applications thereof” (Qingdao Kingagroot Chemical Compound Co., Ltd., priority 2018, dated 2026)
Like-named read-outs stand apart in the source and are kept apart here.

Assays:
Assay type in all cases: in vivo
weeds = assay: Control effect and synergistic effect of the mixture of (i) and (ii), postemergence (Gowing method)
From the text: Wherein, in the formula, X represented the fresh weight inhibition rate of the active ingredient A in a dosage of P, and Y represented the fresh weight inhibition rate of the active ingredient B in a dosage of Q. The statistic results are shown in Table 6.

Galium aparine = assay: Post-emergence test, weed control effect; conditions: 504 h, Dose 300 g/ha, after 3 weeks, fresh weight inhibition, read-out: activity level of harmful plant destruction (growth inhibition rate), Galium aparine
Method in brief: (§1)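 Scores use a 0 (no effect) to 10 (dead) scale of fresh-weight inhibition, assessed 3 weeks after spraying. Treatment was at the 2-3 leaf stage, 2-3 weeks post-sowing, using acetone/Tween-80/water solutions with 80% vegetable oil methyl ester synergist at 1500 g/ha.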

Echinochloa crus-galli = assay: Post-emergence test, weed control effect; conditions: 504 h, Dose 300 g/ha, after 3 weeks, fresh weight inhibition, read-out: activity level of harmful plant destruction (growth inhibition rate), Echinochloa crus-galli
Method in brief: as §1

Rorippa indica = assay: Post-emergence test, weed control effect; conditions: after 3 weeks; for inhibition at 300 g/ha: Rorippa indica, 504 h, fresh weight inhibition, read-out: activity level of harmful plant destruction (growth inhibition rate), Rorippa indica
Method in brief: as §1

Setaria viridis = assay: Post-emergence test, weed control effect; conditions: 504 h, Dose 300 g/ha, after 3 weeks, fresh weight inhibition, read-out: activity level of harmful plant destruction (growth inhibition rate), Setaria viridis
Method in brief: as §1

Chenopodiaceae = assay: Post-emergence test, weed control effect; conditions: after 3 weeks; for inhibition at 300 g/ha: 504 h, fresh weight inhibition, read-out: activity level of harmful plant destruction (growth inhibition rate), Chenopodiaceae
Method in brief: as §1

Veronica polita = assay: Post-emergence test, weed control effect; conditions: after 3 weeks; for inhibition at 300 g/ha: Veronica polita, 504 h, fresh weight inhibition, read-out: activity level of harmful plant destruction (growth inhibition rate), Veronica polita
Method in brief: as §1

Amaranthus retroflexus = assay: Post-emergence test, weed control effect; conditions: after 3 weeks
Method in brief: as §1

[1] = Abutilon theophrasti, 15 g a.i./ha, postemergence, 20 days after treatment
[2] = post-emergence, 480 h, Abutilon theophrasti, 50 g a.i./ha, postemergence, 20 days after treatment, read-out: Inhibitory effect of component (ii) when applied alone at same dose
[3] = Abutilon theophrasti, 5 g a.i./ha, postemergence, 20 days after treatment
[4] = Abutilon theophrasti, 2 g a.i./ha, postemergence, 20 days after treatment
[5] = Abutilon theophrasti, 30 g a.i./ha, postemergence, 20 days after treatment
[6] = post-emergence, 480 h, Abutilon theophrasti, 30 g a.i./ha, postemergence, 20 days after treatment, read-out: Inhibitory effect of component (ii) when applied alone at same dose
[7] = Abutilon theophrasti, 50 g a.i./ha, postemergence, 20 days after treatment
[8] = Sisymbrium sophia, 200 g a.i./ha, postemergence, 20 days after treatment

With CCn1ncc(C(=O)c2ccc(S(C)(=O)=O)c(COCC(F)(F)F)c2Cl)c1OC(=O)c1cn(C)nc1C [Benzuofucaotong] the “Inhibitory effect of component (ii) when applied alone at same dose” value (from here on “Inhibitory effect of component (ii)”) (weeds; [1]) was 40%.
Nc1c(Cl)c(F)nc(OCC(=O)O)c1Cl [Fluroxypyr] showed a pest or weed control at 30 g/ha (weeds; post-emergence, 480 h, Galium aparine, 30 g a.i./ha, postemergence, 20 days after treatment, read-out: Inhibitory effect of component (ii) when applied alone at same dose) of 40%.
Molecule Nc1c(Cl)c(Cl)nc(C(=O)O)c1Cl [Picloram] has a pest or weed control at 50 g/ha (weeds; [2]) of 40%.
In the case of C=CCOc1cc(C(F)(F)F)nnc1-c1ccccc1 [E, reference compound], the inhibition at 300 g/ha (Galium aparine) is reported as 0%, the inhibition at 300 g/ha (Echinochloa crus-galli) is reported as 0% and the inhibition at 300 g/ha (Rorippa indica) is reported as 0 to 20%. For the same molecule, the inhibition at 300 g/ha (Setaria viridis) was 0%, the inhibition at 300 g/ha (Chenopodiaceae) was 0 to 20% and the inhibition at 300 g/ha (Veronica polita) was 0%.
CCCCCCCCSC(=O)Oc1cc(Cl)nnc1-c1ccccc1 [B, reference compound] gave an inhibition at 300 g/ha (Galium aparine) of 40 to 50%, an inhibition at 300 g/ha (Echinochloa crus-galli) of 0% and an inhibition at 300 g/ha (Rorippa indica) of 30 to 40%. It also gave an inhibition at 300 g/ha (Setaria viridis) of 30 to 40%, an inhibition at 300 g/ha (Chenopodiaceae) of 30 to 40% and an inhibition at 300 g/ha (Veronica polita) of 30 to 40%.
With Oc1cc(C(F)(F)F)nnc1C1=CCCCC1 [Compound 1524] the “weed control effect (activity level), Amaranthus retroflexus” value (Amaranthus retroflexus; Dose 3000 g/ha) was 10, the inhibition at 300 g/ha (Galium aparine) was 90 to 100% and the “weed control effect (activity level), Rorippa indica” value (Rorippa indica; Dose 3000 g/ha) was 10. For the same molecule, the inhibition at 300 g/ha (Rorippa indica) was 100%, the inhibition at 300 g/ha (Setaria viridis) was 100% and the inhibition at 300 g/ha (Chenopodiaceae) was 100%. For the same molecule, the “weed control effect (activity level), Chenopodiaceae” value (Chenopodiaceae; Dose 3000 g/ha) was 10, the “weed control effect (activity level), Veronica polita” value (Veronica polita; Dose 3000 g/ha) was 10 and the inhibition at 300 g/ha (Veronica polita) was 90 to 100%.
CNC1=C(c2cccc(C(F)(F)F)c2)C(=O)C(c2ccccc2)O1 (centres unmarked) [Flurtamone] was tested, and the pest or weed control at 100 g/ha (weeds; Galium aparine, post-emergence, 480 h, read-out: Inhibitory effect of component (ii) when applied alone at same dose) was 35%.
With O=C(Nc1ccc(F)cc1F)c1cccnc1Oc1cccc(C(F)(F)F)c1 [Diflufenican] the pest or weed control at 100 g/ha (weeds; post-emergence, 480 h, Veronica polita, 100 g a.i./ha, postemergence, 20 days after treatment, read-out: Inhibitory effect of component (ii) when applied alone at same dose) was 45%.
O=C1C(Cl)C(CCl)CN1c1cccc(C(F)(F)F)c1 (centres unmarked) [Flurochloridone] showed a pest or weed control at 100 g/ha (weeds; post-emergence, 480 h, Galium aparine, 100 g a.i./ha, postemergence, 20 days after treatment, read-out: Inhibitory effect of component (ii) when applied alone at same dose) of 40%.
For Oc1cc(Cl)nnc1-c1ccccc1 [A, reference compound], the inhibition at 300 g/ha (Galium aparine) was 50 to 60%, the inhibition at 300 g/ha (Echinochloa crus-galli) was 0% and the inhibition at 300 g/ha (Rorippa indica) was 20 to 30%. The inhibition at 300 g/ha (Setaria viridis) was 30 to 40%, the inhibition at 300 g/ha (Chenopodiaceae) was 50 to 60% and the inhibition at 300 g/ha (Veronica polita) was 30 to 40%.
With CS(=O)(=O)c1ccc(C(=O)C2C(=O)CCCC2=O)c(Cl)c1 [Sulcotrione] the pest or weed control at 50 g/ha (weeds; Abutilon theophrasti, post-emergence, 480 h, read-out: Inhibitory effect of component (ii) when applied alone at same dose) was 30%.
Cc1c(C(=O)c2cnn(C)c2O)ccc(S(C)(=O)=O)c1C1=NOCC1 [Topramezone] was tested, and the “Inhibitory effect of component (ii)” value (weeds; [3]) was 40%.
For Cc1ccc(C(=O)COc2c(C(=O)c3ccc(Cl)c(C)c3Cl)c(C)nn2C)cc1 [Benzofenap], the pest or weed control at 150 g/ha (weeds; post-emergence, 480 h, Abutilon theophrasti, 150 g a.i./ha, postemergence, 20 days after treatment, read-out: Inhibitory effect of component (ii) when applied alone at same dose) was 40%.
For COC(=O)c1nc(-c2ccc(Cl)c(OC)c2F)cc(N)c1Cl [Halauxifen-methyl], the “Inhibitory effect of component (ii)” value (weeds; [4]) was 40%.
For Cn1[nH]c(C2CC2)c(C(=O)c2ccc(C(F)(F)F)c(N3CCCCC3=O)c2Cl)c1=O [Huanbifucaotong], the “Inhibitory effect of component (ii)” value (weeds; [5]) was 30%.
CNc1cnn(-c2cccc(C(F)(F)F)c2)c(=O)c1Cl [Norflurazon] was tested, and the pest or weed control at 300 g/ha (weeds; post-emergence, 480 h, Abutilon theophrasti, 300 g a.i./ha, postemergence, 20 days after treatment, read-out: Inhibitory effect of component (ii) when applied alone at same dose) was 50%.
For CS(=O)(=O)c1cc(C(F)(F)F)ccc1C(=O)c1cnoc1C1CC1 [Isoxaflutole], the pest or weed control at 30 g/ha (weeds; [6]) was 30%.
In the case of CCC(Oc1ccc(F)c(C(F)(F)F)c1)C(=O)NCc1ccccc1 (centres unmarked) [Beflubutamid], the “Inhibitory effect of component (ii)” value (weeds; Abutilon theophrasti, 200 g a.i./ha, postemergence, 20 days after treatment) is reported as 40%.
With CCn1ncc(C(=O)c2ccc(S(C)(=O)=O)c(OCCOC)c2C)c1OC(C)OC(=O)OC (centres unmarked) [Tolpyralate] the “Inhibitory effect of component (ii)” value (weeds; [3]) was 50%.
In the case of CS(=O)(=O)c1ccc(C(=O)C2C(=O)CCCC2=O)c(Cl)c1OCCC1OCCO1 [Lancotrione], the “Inhibitory effect of component (ii)” value (weeds; [7]) is reported as 40%.
With Cc1cc(Cl)ccc1OC(C)C(=O)O (centres unmarked) [2-methyl 4-chlorophenoxypropionic acid] the “Inhibitory effect of component (ii)” value (weeds; Sisymbrium sophia, 100 g a.i./ha, postemergence, 20 days after treatment) was 30%.
CS(=O)(=O)c1ccc(C(=O)C2C(=O)CCCC2=O)c([N+](=O)[O-])c1 [Mesotrione] was tested, and the pest or weed control at 30 g/ha (weeds; [6]) was 40%.
O=C(O)COc1nc(Cl)c(Cl)cc1Cl [Triclopyr] showed a pest or weed control at 50 g/ha (weeds; [2]) of 35%.
O=C(O)c1nc(Cl)ccc1Cl [Clopyralid] gave a pest or weed control at 50 g/ha (weeds; post-emergence, 480 h, Galinsoga parviflora, 50 g a.i./ha, postemergence, 20 days after treatment, read-out: Inhibitory effect of component (ii) when applied alone at same dose) of 40%.
For CS(=O)(=O)c1ccc(C(=O)C2C(=O)CCCC2=O)c(Cl)c1COCC1CCCO1 (centres unmarked) [Tefuryltrione], the “Inhibitory effect of component (ii)” value (weeds; [7]) was 40%.
For O=C(Nc1ccc(F)cc1)c1cccc(Oc2cccc(C(F)(F)F)c2)n1 [Picolinafen], the “Inhibitory effect of component (ii)” value (weeds; [7]) was 30%.
In the case of O=C(O)COc1nc(Cl)c(Cl)cc1Cl [Trichlopyr], the “Inhibitory effect of component (ii)” value (weeds; [7]) is reported as 40%.
In the case of CS(=O)(=O)c1ccc(C(=O)C2C(=O)CCCC2=O)c(Cl)c1COCC(F)(F)F [Tembotrione], the pest or weed control at 15 g/ha (weeds; post-emergence, 480 h, Abutilon theophrasti, 15 g a.i./ha, postemergence, 20 days after treatment, read-out: Inhibitory effect of component (ii) when applied alone at same dose) is reported as 30%.
With Cc1nn(C)c(O)c1C(=O)c1ccc(C(F)(F)F)cc1S(C)(=O)=O [Pyrasulfotole] the “Inhibitory effect of component (ii)” value (weeds; [1]) was 50%.
CC(Oc1ccc(Cl)cc1Cl)C(=O)O (centres unmarked) [Dichlorprop] showed a pest or weed control at 100 g/ha (weeds; Descurainia sophia, post-emergence, 480 h, Sisymbrium sophia, 100 g a.i./ha, postemergence, 20 days after treatment, read-out: Inhibitory effect of component (ii) when applied alone at same dose) of 40%.
In the case of CS(=O)(=O)c1ccc(C(=O)C2=C(Sc3ccccc3)C3CCC(C3)C2=O)c(Cl)c1 (centres unmarked) [Benzobicyclon], the “Inhibitory effect of component (ii)” value (weeds; Abutilon theophrasti, 150 g a.i./ha, postemergence, 20 days after treatment) is reported as 50%.
For Cc1cc(Cl)ccc1OCCCC(=O)O [MCPB], the “Inhibitory effect of component (ii)” value (weeds; [8]) was 40%.
Fluridone was tested, and the “Inhibitory effect of component (ii)” value (weeds; Abutilon theophrasti, 100 g a.i./ha, postemergence, 20 days after treatment) was 45%.
In the case of O=C(O)CCCOc1ccc(Cl)cc1Cl [2,4-DB], the “Inhibitory effect of component (ii)” value (weeds; [8]) is reported as 50%.
In the case of COc1c(Cl)ccc(-c2nc(C(=O)OCc3ccccc3)c(Cl)c(N)c2F)c1F [Florpyrauxifen-benzyl], the “Inhibitory effect of component (ii)” value (weeds; [4]) is reported as 45%.
Work on COc1c(Cl)ccc(Cl)c1C(=O)O [Dicamba] yielded a pest or weed control at 10 g/ha (weeds; Descurainia sophia, post-emergence, 480 h, Sisymbrium sophia, 10 g a.i./ha, postemergence, 20 days after treatment, read-out: Inhibitory effect of component (ii) when applied alone at same dose) of 30%.
Oc1cc(C(F)(F)F)nnc1-c1ccccc1 [Compound 1] was tested, and the “weed control effect (activity level), Amaranthus retroflexus” value (Amaranthus retroflexus; dose 2000 g/ha) was 10, the “weed control effect (activity level), Rorippa indica” value (Rorippa indica; dose 2000 g/ha) was 10 and the “weed control effect (activity level), Chenopodiaceae” value (Chenopodiaceae; dose 2000 g/ha) was 8 (Level 8: above 80% growth inhibition rate). For the same molecule, the “weed control effect (activity level), Veronica polita” value (Veronica polita; dose 2000 g/ha) was 10, the “Inhibitory effect of component (i) when applied alone at same dose” value (“Inhibitory effect of component (i)” below) (weeds; [5]) was 20 and the “Inhibitory effect of component (i)” value (weeds; Galinsoga parviflora, 30 g a.i./ha, postemergence, 20 days after treatment) was 30. For the same molecule, the “Inhibitory effect of component (i)” value (weeds; Galium aparine, 30 g a.i./ha, postemergence, 20 days after treatment) was 20, the “Inhibitory effect of component (i)” value (weeds; Sisymbrium sophia, 30 g a.i./ha, postemergence, 20 days after treatment) was 20 and the “Inhibitory effect of component (i)” value (weeds; Veronica polita, 30 g a.i./ha, postemergence, 20 days after treatment) was 30.
In the case of Cc1nn(C)cc1C(=O)Oc1c(C(=O)c2ccc(C(F)(F)F)cc2S(C)(=O)=O)c(C)nn1C [Shuangzuocaotong], the “Inhibitory effect of component (ii)” value (weeds; Sisymbrium sophia, 5 g a.i./ha, postemergence, 20 days after treatment) is reported as 40%.
With O=C(O)c1c(Cl)ccc2cc(Cl)cnc12 [Quinclorac] the pest or weed control at 50 g/ha (weeds; post-emergence, 480 h, Galium aparine, 50 g a.i./ha, postemergence, 20 days after treatment, read-out: Inhibitory effect of component (ii) when applied alone at same dose) was 50%.
In the case of CC(C)CCCCCOC(=O)COc1ccc(Cl)cc1Cl [2,4-D iso-octyl ester], the “Inhibitory effect of component (ii)” value (weeds; Sisymbrium sophia, 50 g a.i./ha, postemergence, 20 days after treatment) is reported as 40%.
